Experimental data as given in patent publication US20180042234A1, “FUNGICIDAL PYRAZOLES” (E I DU PONT DE NEMOURS AND COMPANY, priority 2015, published 2018).
Marks after values point to notes of the source that are not given here.

Legend:
Assay type in all cases: in vivo
[1] = test system: Puccinia recondita f. sp. tritici; test: Test A: wheat leaf rust, preventive spray on wheat seedlings, visual disease rating
Text: (§1) General protocol for preparing test suspensions for Tests A-E: the test compounds were first dissolved in acetone in an amount equal to 3% of the final volume and then suspended at the desired concentration (in ppm) in acetone and purified water (50/50 mix by volume) containing 250 ppm of the surfactant Trem® 014 (polyhydric alcohol esters). The resulting test suspensions were then used in Tests A-E. Spraying a 200 ppm test suspension to the point of run-off on the test plants was the equivalent of a rate of 800 g/ha.
The test suspension was sprayed to the point of run-off on wheat seedlings. The following day the seedlings were inoculated with a spore suspension of Puccinia recondita f. sp. tritici (the causal agent of wheat leaf rust) and incubated in a saturated atmosphere at 20° C. for 24 h, and then moved to a growth chamber at 20° C. for 7 days, after which time visual disease ratings were made.
(§2) Results for Tests A-E are given in Table A. In the Table, a rating of 100 indicates 100% disease control and a rating of 0 indicates no disease control (relative to the controls). A dash (-) indicates no test results. All results are for 200 ppm except where followed by an asterisk “*” which indicates a 250 ppm test suspension was used or a double asterisk “**” which indicates a 50 ppm test suspension was used.

Septoria tritici = test: Test B: wheat leaf blotch, preventive spray on wheat seedlings, visual disease rating
Text: as §1
(§3) The test suspension was sprayed to the point of run-off on wheat seedlings. The following day the seedlings were inoculated with a spore suspension of Septoria tritici (the causal agent of wheat leaf blotch) and incubated in a saturated atmosphere at 24° C. for 48 h, and then moved to a growth chamber at 20° C. for 19 days, after which time visual disease ratings were made.
as §2

Botrytis cinerea = test: Test C: tomato Botrytis, preventive spray on tomato seedlings, visual disease rating
Text: as §1
as §3, with “tomato” for “wheat”, “Botrytis cinerea” for “Septoria tritici”, “tomato Botrytis)” for “wheat leaf blotch)”, “20°” for “24°”, “24°” for “20°”, “3” for “19”
as §2

[2] = test system: Blumeria graminis f sp. tritici; test: Test D: wheat powdery mildew, preventive spray on wheat seedlings, visual disease rating
Text: as §1
The test suspension was sprayed to the point of run-off on wheat seedlings. The following day the seedlings were inoculated with a spore dust of Blumeria graminis f sp. tritici, (also known as Erysiphe graminis f sp. tritici, the causal agent of wheat powdery mildew) and incubated in a growth chamber at 20° C. for 8 days, after which time visual disease ratings were made.
as §2

[3] = 200 ppm test suspension, 100 = 100% disease control, 0 = no control

SMILES | Test A disease control rating ([1]; 250 ppm test suspension (*)) | Test B disease control rating (Septoria tritici; 250 ppm test suspension (*)) | Test C disease control rating (Botrytis cinerea; 250 ppm test suspension (*)) | Test D disease control rating ([2]; 250 ppm test suspension (*)) | other results
Cc1nn(C)c(Nc2ccc(F)cc2Cl)c1C1CCC(C)CC1 (centres unmarked) [Compound 61] | 0* % | 53* % | 0* % | 97* % | 
C=C(C)c1c(C)nn(C)c1Oc1ccc(F)cc1Cl [Compound 39] | 15* % | 0* % | 0* % | 13* % | 
Cc1nn(C)c(C(O)c2ccc(F)cc2F)c1C1CCCCC1 (stereo not drawn) [Compound 12, 4-cyclohexyl-α-(2,4-difluorophenyl)-1,3-dimethyl-1H-pyrazole-5-methanol] | 94* % | 100* % | 61* % | 97* % | 
CCON=C(C)c1c(C)nn(C)c1N(CC)c1ccc(F)cc1Cl [Compound 29] | 55* % | 14* % | 0* % | 0* % | 
Cn1nc(Br)c(C2OCCCO2)c1C(O)c1ccc(F)cc1F (centres unmarked) [Compound 10] | 0* % | 0* % | 0* % | 90* % | 
CCC(OC)c1c(C)nn(C)c1Oc1c(F)cccc1F (centres unmarked) [Compound 25] | 99* % | 6* % | 0* % | 0* % | 
CC(=O)c1c(C)nn(C)c1Nc1ccc(F)cc1Cl [Compound 32] | 19* % |  | 56* % | 0* % | 
Cc1nn(C)c(Nc2ccc(F)cc2Cl)c1C1=CCC(C)(C)CC1 [Compound 60] | 19* % | 16* % | 0* % | 0* % | 
Cc1nn(C)c(Nc2ccc(F)cc2Cl)c1C1=CCOCC1 [Compound 21] | 0* % | 17* % | 42* % | 13* % | 
CCCCC(CC)c1c(C)nn(C)c1Nc1ccc(F)cc1Cl (centres unmarked) [Compound 3] |  |  |  |  | Test A disease control rating [1, 3]: 9%; Test B disease control rating (Septoria tritici; 200 ppm test suspension): 0%; Test D disease control rating ([2]; 200 ppm test suspension): 0%
Cn1nc(Br)c(C2OCCCO2)c1C(O)c1ccc(F)cc1Br (centres unmarked) [Compound 9] | 0* % | 0* % | 0* % | 64* % | 
Cc1nn(C)c(Oc2ccc(F)cc2Cl)c1C1=NOC(C#N)C1 (centres unmarked) [Compound 55] | 0* % | 0* % | 0* % | 73* % | 
Cc1nn(C)c(Nc2ccc(F)cc2F)c1C1CCC(C#N)CC1 (centres unmarked) [Compound 63] | 86* % | 55* % | 0* % | 96* % | 
CC(=CC(C)C)c1c(C)nn(C)c1Nc1ccc(F)cc1Cl [Compound 31] | 55* % | 6* % | 0* % | 48* % | 
Cc1nn(C)c(Nc2ccc(F)cc2F)c1C1=CCOCC1 [Compound 58] | 0* % | 25* % | 0* % | 0* % | 
Cc1nn(C)c(Oc2ccc(F)cc2Cl)c1C1OCC(C)(C)CO1 [Compound 38] | 52* % | 93* % | 0* % | 94* % | 
CC=C(C)c1c(C)nn(C)c1Nc1c(F)cc(Cl)cc1F [Compound 24, N-(4-chloro-2,6-difluorophenyl)-1,3-dimethyl-4-(1-methyl-1-propen-1-yl)-1H-pyrazol-5-amine] |  |  |  |  | Test A disease control rating [1, 3]: 94%; Test B disease control rating (Septoria tritici; 200 ppm test suspension): 96%; Test C disease control rating (Botrytis cinerea; 200 ppm test suspension): 85%; Test D disease control rating ([2]; 200 ppm test suspension): 100%
CON=C(C)c1c(C)nn(C)c1N(C)c1ccc(F)cc1Cl [Compound 33] |  |  |  |  | Test A disease control rating ([1]; 50 ppm test suspension (**)): 17** %; Test B disease control rating (Septoria tritici; 50 ppm test suspension (**)): 0** %; Test C disease control rating (Botrytis cinerea; 50 ppm test suspension (**)): 7** %; Test D disease control rating ([2]; 50 ppm test suspension (**)): 0** %

SMILES | Test A disease control rating ([1]; 250 ppm test suspension (*)) | Test B disease control rating (Septoria tritici; 250 ppm test suspension (*)) | Test C disease control rating (Botrytis cinerea; 250 ppm test suspension (*)) | Test D disease control rating ([2]; 250 ppm test suspension (*)) | other results
Cc1nn(C)c(Oc2ccc(F)cc2Cl)c1C(C)O (centres unmarked) [Compound 41] | 0* % | 0* % | 0* % | 46* % | 
Cc1nn(C)c(Nc2ccc(F)cc2Cl)c1C1CCC(C)(C)CC1 [Compound 62] | 68* % | 9* % | 0* % | 96* % | 
Cc1nn(C)c(Nc2c(F)cc(Cl)cc2F)c1C1=CCCCC1C (centres unmarked) [Compound 22] |  |  |  |  | Test A disease control rating [1, 3]: 68%; Test C disease control rating (Botrytis cinerea; 200 ppm test suspension): 99%; Test D disease control rating ([2]; 200 ppm test suspension): 56%
Cc1nn(C)c(Oc2ccc(F)cc2Cl)c1C1OCCCO1 [Compound 37] | 52* % | 5* % | 0* % | 63* % | 
Cn1nc(Br)c(C2OCCCO2)c1C(O)c1ccc(F)cc1Cl (centres unmarked) [Compound 8] | 0* % | 5* % | 0* % | 72* % | 
CC(=NOC(C)C)c1c(C)nn(C)c1Nc1ccc(F)cc1Cl [Compound 28] | 32* % | 24* % | 0* % | 0* % | 
Cc1nn(C)c(Nc2ccc(F)cc2)c1C1CCC(C)CC1 (centres unmarked) [Compound 64] | 55* % | 58* % | 0* % | 96* % | 
CCC(C)c1c(C)nn(C)c1Nc1c(F)cc(Cl)cc1F (centres unmarked) [Compound 23, N-(4-chloro-2,6-difluorophenyl)-1,3-dimethyl-4-(1-methylpropyl)-1H-pyrazol-5-amine] |  |  |  |  | Test A disease control rating [1, 3]: 68%; Test C disease control rating (Botrytis cinerea; 200 ppm test suspension): 98%; Test D disease control rating ([2]; 200 ppm test suspension): 95%
Cc1nn(C)c(Nc2ccc(F)cc2)c1C1CCOCC1 [Compound 57] | 0* % | 44* % | 0* % | 89* % | 
Cc1nn(C)c(Oc2ccc(F)cc2Cl)c1C1=NOC(C)(C)C1 [Compound 53] | 0* % | 2* % | 0* % | 90* % | 
CC1=NOC(c2c(C)nn(C)c2Oc2ccc(F)cc2Cl)C1 (centres unmarked) [Compound 40] | 30* % | 36* % | 33* % | 81* % | 
Cc1nn(C)c(Nc2ccc(F)cc2Cl)c1C1CCC(C#N)CC1 (centres unmarked) [Compound 65] | 55* % | 54* % | 0* % | 13* % | 
Cc1nn(C)c(Nc2ccc(F)cc2Cl)c1C1CCOCC1 [Compound 56] | 55* % | 100* % | 100* % | 99* % | 
C=Cc1c(C)nn(C)c1Oc1ccc(F)cc1Cl [Compound 35] | 8* % | 0* % | 0* % | 26* % | 
CCON=C(C)c1c(C)nn(C)c1Nc1ccc(F)cc1Cl [Compound 26] | 0* % | 33* % | 0* % | 0* % | 
Cc1nn(C)c(Nc2ccc(F)cc2F)c1C1CCOCC1 [Compound 59] | 41* % | 92* % | 24* % | 98* % | 
Cc1nn(C)c(Nc2ccc(F)cc2F)c1C1=CCC(C#N)CC1 (centres unmarked) [Compound 18] | 19* % | 79* % | 73* % | 0* % | 
Cc1nn(C)c(Oc2ccc(F)cc2Cl)c1C=NO [Compound 42] | 9* % | 0* % | 7* % | 81* % | 
